Experimental data reported in PubChem BioAssay (NCI).
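A five-concentration, 48-hour dose response in 96-well plates underlies each endpoint, interpolated linearly between surrounding concentrations. At the TGI there is no net growth.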

What was measured:
Test in all cases: growth of human tumour cells (NCI), 48 h
A549 NSCLC = test system: A549 NSCLC
ACHN renal = test system: ACHN renal
CCRF-CEM leukemia = test system: CCRF-CEM leukemia
DLD-1 colon = test system: DLD-1 colon
DMS 114 small cell lung = test system: DMS 114 small cell lung
DMS 273 small cell lung = test system: DMS 273 small cell lung
HCT-116 colon = test system: HCT-116 colon
HCT-15 colon = test system: HCT-15 colon
HL-60(TB) leukemia = test system: HL-60(TB) leukemia
HOP-18 NSCLC = test system: HOP-18 NSCLC
HT29 colon = test system: HT29 colon
K-562 leukemia = test system: K-562 leukemia
KM12 colon = test system: KM12 colon
LOX IMVI melanoma = test system: LOX IMVI melanoma
LXFL 529 NSCLC = test system: LXFL 529 NSCLC
M14 melanoma = test system: M14 melanoma
M19-MEL melanoma = test system: M19-MEL melanoma
MALME-3M melanoma = test system: MALME-3M melanoma
MOLT-4 leukemia = test system: MOLT-4 leukemia
NCI-H226 lung = test system: NCI-H226 lung
NCI-H23 lung = test system: NCI-H23 lung
NCI-H460 lung = test system: NCI-H460 lung
NCI-H522 lung = test system: NCI-H522 lung
OVCAR-3 ovarian = test system: OVCAR-3 ovarian
OVCAR-4 ovarian = test system: OVCAR-4 ovarian
OVCAR-8 ovarian = test system: OVCAR-8 ovarian
RXF 393 renal = test system: RXF 393 renal
SF-268 CNS = test system: SF-268 CNS
SF-295 CNS = test system: SF-295 CNS
SF-539 CNS = test system: SF-539 CNS
SK-MEL-2 melanoma = test system: SK-MEL-2 melanoma
SK-MEL-28 melanoma = test system: SK-MEL-28 melanoma
SK-MEL-5 melanoma = test system: SK-MEL-5 melanoma
SK-OV-3 ovarian = test system: SK-OV-3 ovarian
SN12C renal = test system: SN12C renal
SNB-19 CNS = test system: SNB-19 CNS
SNB-75 CNS = test system: SNB-75 CNS
SNB-78 CNS = test system: SNB-78 CNS
TK-10 renal = test system: TK-10 renal
U251 CNS = test system: U251 CNS
UACC-257 melanoma = test system: UACC-257 melanoma
UACC-62 melanoma = test system: UACC-62 melanoma
UO-31 renal = test system: UO-31 renal
XF 498 CNS = test system: XF 498 CNS
786-0 renal = test system: 786-0 renal
A498 renal = test system: A498 renal
BT-549 breast = test system: BT-549 breast
CAKI-1 renal = test system: CAKI-1 renal
COLO 205 colon = test system: COLO 205 colon
DU-145 prostate = test system: DU-145 prostate
EKVX NSCLC = test system: EKVX NSCLC
HCC-2998 colon = test system: HCC-2998 colon
HOP-62 NSCLC = test system: HOP-62 NSCLC
HOP-92 NSCLC = test system: HOP-92 NSCLC
HS 578T breast = test system: HS 578T breast
IGROV1 ovarian = test system: IGROV1 ovarian
MCF7 breast = test system: MCF7 breast
MDA-MB-231 breast = test system: MDA-MB-231 breast
MDA-MB-435 = test system: MDA-MB-435
MDA-N = test system: MDA-N
NCI/ADR-RES ovarian = test system: NCI/ADR-RES ovarian
OVCAR-5 ovarian = test system: OVCAR-5 ovarian
PC-3 prostate = test system: PC-3 prostate
RPMI-8226 leukemia = test system: RPMI-8226 leukemia
SR leukemia = test system: SR leukemia
SW-620 colon = test system: SW-620 colon
T-47D breast = test system: T-47D breast

## CC1(C)OP23(NC(=O)OC2(C(F)(F)F)c2ccccc2O3)OC1(C)C (configuration not stated)
A549 NSCLC
  TGI: > 100 µM
ACHN renal
  TGI: > 100 µM
CCRF-CEM leukemia
  TGI: > 100 µM
DLD-1 colon
  TGI: > 100 µM
DMS 114 small cell lung
  TGI: > 100 µM
DMS 273 small cell lung
  TGI: > 100 µM
HCT-116 colon
  TGI: > 100 µM
HCT-15 colon
  TGI: > 100 µM
HL-60(TB) leukemia
  TGI: > 100 µM
HOP-18 NSCLC
  TGI: > 100 µM
HT29 colon
  TGI: > 100 µM
K-562 leukemia
  TGI: > 100 µM
KM12 colon
  TGI: > 100 µM
LOX IMVI melanoma
  TGI: > 100 µM
LXFL 529 NSCLC
  TGI: > 100 µM
M14 melanoma
  TGI: > 100 µM
M19-MEL melanoma
  TGI: > 100 µM
MALME-3M melanoma
  TGI: > 100 µM
MOLT-4 leukemia
  TGI: > 100 µM
NCI-H226 lung
  TGI: > 100 µM
NCI-H23 lung
  TGI: > 100 µM
NCI-H460 lung
  TGI: > 100 µM
NCI-H522 lung
  TGI: > 100 µM
OVCAR-3 ovarian
  TGI: > 100 µM
OVCAR-4 ovarian
  TGI: > 100 µM
OVCAR-8 ovarian
  TGI: > 100 µM
RXF 393 renal
  TGI: > 100 µM
SF-268 CNS
  TGI: > 100 µM
SF-295 CNS
  TGI: > 100 µM
SF-539 CNS
  TGI: > 100 µM
SK-MEL-2 melanoma
  TGI: > 100 µM
SK-MEL-28 melanoma
  TGI: > 100 µM
SK-MEL-5 melanoma
  TGI: > 100 µM
SK-OV-3 ovarian
  TGI: > 100 µM
SN12C renal
  TGI: > 100 µM
SNB-19 CNS
  TGI: > 100 µM
SNB-75 CNS
  TGI: > 100 µM
SNB-78 CNS
  TGI: > 100 µM
TK-10 renal
  TGI: > 100 µM
U251 CNS
  TGI: > 100 µM
UACC-257 melanoma
  TGI: > 100 µM
UACC-62 melanoma
  TGI: > 100 µM
UO-31 renal
  TGI: > 100 µM
XF 498 CNS
  TGI: > 100 µM

## CC(C)Oc1c(-c2c(OC(C)C)c(=O)c2=O)c(=O)c1=O
786-0 renal
  TGI: > 66 µM
A498 renal
  TGI: > 100 µM
A549 NSCLC
  TGI: > 100 µM
ACHN renal
  TGI: > 100 µM
BT-549 breast
  TGI: > 61.3 µM
CAKI-1 renal
  TGI: > 100 µM
CCRF-CEM leukemia
  TGI: > 100 µM
COLO 205 colon
  TGI: > 51.9 µM
DU-145 prostate
  TGI: > 100 µM
EKVX NSCLC
  TGI: > 64.9 µM
HCC-2998 colon
  TGI: > 100 µM
HCT-116 colon
  TGI: > 51 µM
HCT-15 colon
  TGI: > 100 µM
HL-60(TB) leukemia
  TGI: > 100 µM
HOP-62 NSCLC
  TGI: > 85.2 µM
HOP-92 NSCLC
  TGI: > 100 µM
HS 578T breast
  TGI: > 67 µM
HT29 colon
  TGI: > 58.3 µM
IGROV1 ovarian
  TGI: > 51.5 µM
K-562 leukemia
  TGI: > 54.7 µM
KM12 colon
  TGI: > 59.6 µM
LOX IMVI melanoma
  TGI: > 47.1 µM
M14 melanoma
  TGI: > 100 µM
MALME-3M melanoma
  TGI: 4 µM
MCF7 breast
  TGI: > 41.8 µM
MDA-MB-231 breast
  TGI: > 57.2 µM
MDA-MB-435
  TGI: > 41.6 µM
MDA-N
  TGI: > 38.6 µM
MOLT-4 leukemia
  TGI: > 68.1 µM
NCI-H226 lung
  TGI: > 100 µM
NCI-H23 lung
  TGI: > 75.6 µM
NCI-H460 lung
  TGI: > 100 µM
NCI-H522 lung
  TGI: > 27.7 µM
NCI/ADR-RES ovarian
  TGI: 26.8 µM
OVCAR-4 ovarian
  TGI: > 62.9 µM
OVCAR-5 ovarian
  TGI: > 100 µM
OVCAR-8 ovarian
  TGI: > 71.9 µM
PC-3 prostate
  TGI: > 100 µM
RPMI-8226 leukemia
  TGI: > 71.8 µM
RXF 393 renal
  TGI: > 78.5 µM
SF-268 CNS
  TGI: > 75.9 µM
SF-295 CNS
  TGI: > 100 µM
SF-539 CNS
  TGI: > 100 µM
SK-MEL-2 melanoma
  TGI: > 89.1 µM
SK-MEL-28 melanoma
  TGI: > 100 µM
SK-MEL-5 melanoma
  TGI: > 61.8 µM
SK-OV-3 ovarian
  TGI: > 100 µM
SN12C renal
  TGI: > 62.7 µM
SNB-19 CNS
  TGI: > 100 µM
SNB-75 CNS
  TGI: > 71.2 µM
SR leukemia
  TGI: > 100 µM
SW-620 colon
  TGI: > 62 µM
T-47D breast
  TGI: > 100 µM
TK-10 renal
  TGI: > 100 µM
U251 CNS
  TGI: > 59.9 µM
UACC-257 melanoma
  TGI: > 100 µM
UACC-62 melanoma
  TGI: > 61.5 µM
UO-31 renal
  TGI: > 100 µM
